Laboratory results as given in ChEMBL document CHEMBL1201862, “PubChem BioAssay data set” (2004).
Active and inactive are the calls of the source.

What was measured:
[1] = molecular target: 5-hydroxytryptamine receptor 1E (Homo sapiens, UniProt P28566); test: Counterscreen assay for S1P3 antagonists: Dose response cell-based high throughput screening assay to identify antagonists of the 5-Hydroxytryptamine Receptor Subtype 1E (5HT1E). [Related pubchem assays: 1429, 485 ]; format: functional
[2] = growth suppression of PTEN-null colon cells, dose response, cell-based, HCT116 PTEN knockout (AID 1047); format: functional;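 note: HCT116 colon tumor cells with PTEN knocked out; cells exposed to compound for 60 hours before readout; potency for loss of cell viability measured by luminescence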
[3] = growth suppression of beta-catenin-knockout colon cells, dose response, cell-based, HCT116, human colon tumor (AID 1045); format: functional;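 note: HCT116 colon tumor cells with beta catenin knocked out; cells exposed to compound for 60 hours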
[4] = molecular target: Sphingosine 1-phosphate receptor 3 (Homo sapiens, UniProt Q99500); test: Dose response cell-based high throughput screening assay for antagonists of the Sphingosine 1-Phosphate Receptor 3 (S1P3). [Related pubchem assays: 1429, 485 ]; format: functional
Sphingosine 1-phosphate receptor 3, sequence (Q99500 whole entry): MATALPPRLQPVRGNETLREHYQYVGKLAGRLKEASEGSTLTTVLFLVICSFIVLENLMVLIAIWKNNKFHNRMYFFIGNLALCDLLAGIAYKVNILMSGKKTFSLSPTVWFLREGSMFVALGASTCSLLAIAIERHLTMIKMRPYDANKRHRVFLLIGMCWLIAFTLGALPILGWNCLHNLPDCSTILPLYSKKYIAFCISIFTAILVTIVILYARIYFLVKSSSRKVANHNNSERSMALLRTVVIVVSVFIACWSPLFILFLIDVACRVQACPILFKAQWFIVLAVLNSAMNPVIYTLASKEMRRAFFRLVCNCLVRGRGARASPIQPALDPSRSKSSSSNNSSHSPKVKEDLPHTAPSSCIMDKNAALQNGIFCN

[5] = molecular target: T1, Mannose-6-phosphate isomerase (Homo sapiens, UniProt P34949); test: inhibitors of human PMI, primary screen, biochemical, fluorescence intensity, coupled assay (AID 1209)
T1 sequence (P34949 whole entry): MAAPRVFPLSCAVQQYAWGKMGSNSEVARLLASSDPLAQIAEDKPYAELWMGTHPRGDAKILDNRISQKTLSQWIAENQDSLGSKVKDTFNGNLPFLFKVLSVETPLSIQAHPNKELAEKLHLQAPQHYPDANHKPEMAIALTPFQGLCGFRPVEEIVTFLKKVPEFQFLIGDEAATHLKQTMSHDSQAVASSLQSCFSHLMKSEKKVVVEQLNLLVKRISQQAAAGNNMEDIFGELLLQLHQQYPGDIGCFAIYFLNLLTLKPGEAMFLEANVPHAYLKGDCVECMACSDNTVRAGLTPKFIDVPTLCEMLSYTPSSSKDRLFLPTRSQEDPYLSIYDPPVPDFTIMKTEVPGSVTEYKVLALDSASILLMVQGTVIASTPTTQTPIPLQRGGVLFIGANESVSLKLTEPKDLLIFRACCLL

[6] = molecular target: T2, Voltage-gated N-type calcium channel alpha-1B subunit/Amyloid beta A4 precursor protein-binding family A member 1 (Homo sapiens, UniProt Q00975+Q02410); format: protein assay
T2 sequence (Q00975 whole entry): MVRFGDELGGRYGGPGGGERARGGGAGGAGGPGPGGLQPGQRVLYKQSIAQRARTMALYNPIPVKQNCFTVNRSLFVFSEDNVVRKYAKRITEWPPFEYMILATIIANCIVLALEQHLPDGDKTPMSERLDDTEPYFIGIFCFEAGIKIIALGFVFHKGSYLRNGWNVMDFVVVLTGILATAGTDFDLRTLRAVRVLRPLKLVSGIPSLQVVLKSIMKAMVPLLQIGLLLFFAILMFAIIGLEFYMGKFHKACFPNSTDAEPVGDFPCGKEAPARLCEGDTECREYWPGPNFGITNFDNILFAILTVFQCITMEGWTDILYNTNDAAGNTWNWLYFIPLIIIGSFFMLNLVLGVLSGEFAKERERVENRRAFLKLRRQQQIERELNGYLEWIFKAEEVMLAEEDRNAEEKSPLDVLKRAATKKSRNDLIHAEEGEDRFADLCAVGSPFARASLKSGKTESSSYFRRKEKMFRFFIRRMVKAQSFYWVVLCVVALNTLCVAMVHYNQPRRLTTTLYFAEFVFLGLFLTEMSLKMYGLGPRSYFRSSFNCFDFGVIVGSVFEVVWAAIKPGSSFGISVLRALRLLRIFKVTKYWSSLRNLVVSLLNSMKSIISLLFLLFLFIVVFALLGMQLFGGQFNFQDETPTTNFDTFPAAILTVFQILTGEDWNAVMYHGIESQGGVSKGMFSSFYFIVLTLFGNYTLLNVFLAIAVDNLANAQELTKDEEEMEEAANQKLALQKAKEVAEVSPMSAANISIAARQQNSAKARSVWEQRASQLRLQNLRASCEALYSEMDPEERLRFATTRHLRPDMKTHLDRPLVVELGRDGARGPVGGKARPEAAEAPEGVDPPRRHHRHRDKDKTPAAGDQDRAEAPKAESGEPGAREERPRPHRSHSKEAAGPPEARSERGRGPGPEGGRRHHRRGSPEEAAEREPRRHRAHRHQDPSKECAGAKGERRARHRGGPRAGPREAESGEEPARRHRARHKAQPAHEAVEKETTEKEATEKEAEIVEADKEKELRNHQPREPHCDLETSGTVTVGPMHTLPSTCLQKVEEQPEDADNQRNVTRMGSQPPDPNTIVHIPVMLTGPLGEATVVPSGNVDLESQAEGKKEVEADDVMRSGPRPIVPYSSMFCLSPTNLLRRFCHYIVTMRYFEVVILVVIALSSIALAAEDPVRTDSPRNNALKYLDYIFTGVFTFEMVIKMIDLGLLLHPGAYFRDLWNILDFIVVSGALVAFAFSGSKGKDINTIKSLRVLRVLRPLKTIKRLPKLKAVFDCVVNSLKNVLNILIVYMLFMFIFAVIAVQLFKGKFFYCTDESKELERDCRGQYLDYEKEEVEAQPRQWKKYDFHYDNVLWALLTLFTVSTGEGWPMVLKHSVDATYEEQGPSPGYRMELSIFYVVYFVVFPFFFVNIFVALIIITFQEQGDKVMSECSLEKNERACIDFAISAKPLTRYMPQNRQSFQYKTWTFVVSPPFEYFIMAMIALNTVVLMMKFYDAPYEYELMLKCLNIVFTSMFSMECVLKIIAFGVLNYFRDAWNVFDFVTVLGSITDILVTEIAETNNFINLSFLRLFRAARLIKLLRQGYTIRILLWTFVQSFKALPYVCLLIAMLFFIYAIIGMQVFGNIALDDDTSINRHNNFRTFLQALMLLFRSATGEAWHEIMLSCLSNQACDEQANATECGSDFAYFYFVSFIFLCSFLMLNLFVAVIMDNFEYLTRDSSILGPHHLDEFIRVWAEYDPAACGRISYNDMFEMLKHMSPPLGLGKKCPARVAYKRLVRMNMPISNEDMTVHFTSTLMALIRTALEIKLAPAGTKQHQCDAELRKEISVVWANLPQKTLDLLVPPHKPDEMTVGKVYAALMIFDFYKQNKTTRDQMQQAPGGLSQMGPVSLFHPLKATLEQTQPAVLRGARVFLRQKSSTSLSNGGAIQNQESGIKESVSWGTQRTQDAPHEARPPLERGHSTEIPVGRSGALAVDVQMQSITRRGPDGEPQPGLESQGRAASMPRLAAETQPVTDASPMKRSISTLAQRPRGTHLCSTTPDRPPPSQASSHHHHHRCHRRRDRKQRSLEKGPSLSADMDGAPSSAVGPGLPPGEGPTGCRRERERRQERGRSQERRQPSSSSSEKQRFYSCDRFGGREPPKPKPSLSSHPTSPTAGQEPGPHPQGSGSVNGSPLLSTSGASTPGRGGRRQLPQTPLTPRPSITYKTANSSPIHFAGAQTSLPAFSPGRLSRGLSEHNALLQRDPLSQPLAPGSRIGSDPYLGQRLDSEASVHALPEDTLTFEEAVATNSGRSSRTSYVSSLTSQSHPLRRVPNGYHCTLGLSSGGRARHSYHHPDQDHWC
T2 sequence (Q02410 whole entry): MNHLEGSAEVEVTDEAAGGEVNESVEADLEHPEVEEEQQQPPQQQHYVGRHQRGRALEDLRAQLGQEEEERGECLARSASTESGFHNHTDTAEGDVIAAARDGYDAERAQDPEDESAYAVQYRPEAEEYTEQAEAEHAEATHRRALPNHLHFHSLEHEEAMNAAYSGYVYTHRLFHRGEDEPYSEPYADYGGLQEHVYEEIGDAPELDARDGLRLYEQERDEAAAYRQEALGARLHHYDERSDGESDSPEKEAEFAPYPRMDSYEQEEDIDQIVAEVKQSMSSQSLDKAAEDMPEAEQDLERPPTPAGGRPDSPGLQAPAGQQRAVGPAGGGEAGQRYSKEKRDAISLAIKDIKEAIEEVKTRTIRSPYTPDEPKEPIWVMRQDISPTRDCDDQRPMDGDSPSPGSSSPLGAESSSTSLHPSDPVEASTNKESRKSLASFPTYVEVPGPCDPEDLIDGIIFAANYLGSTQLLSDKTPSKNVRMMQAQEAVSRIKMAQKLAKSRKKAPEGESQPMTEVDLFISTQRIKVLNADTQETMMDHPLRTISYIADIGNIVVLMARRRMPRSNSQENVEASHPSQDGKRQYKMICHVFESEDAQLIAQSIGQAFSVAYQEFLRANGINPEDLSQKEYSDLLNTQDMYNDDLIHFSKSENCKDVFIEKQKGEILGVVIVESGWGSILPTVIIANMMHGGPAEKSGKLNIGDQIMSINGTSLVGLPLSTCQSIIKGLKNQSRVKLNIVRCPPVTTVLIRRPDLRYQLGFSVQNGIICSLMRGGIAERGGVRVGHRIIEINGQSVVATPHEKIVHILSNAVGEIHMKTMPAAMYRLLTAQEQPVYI

[7] = molecular target: T1, Mannose-6-phosphate isomerase; test: human PMI inhibitors, high substrate, primary screen, biochemical, fluorescence intensity, high mannose 6-phosphate (AID 1220)
[8] = molecular target: T2, Voltage-gated N-type calcium channel alpha-1B subunit/Amyloid beta A4 precursor protein-binding family A member 1; format: protein assay; remark: listed apart in the source
[9] = molecular target: Ion channel NompC (Danio rerio, UniProt Q7T1G6); test: Fluorescence counterscreen assay for TRPML3 agonists: dose response cell-based high-throughput screening assay to identify agonists of the transient receptor potential channel N1 (TRPN1). [Related pubchem assays: 1526, 1424, 1448 ]; format: functional
[10] = molecular target: Mucolipin-3 (Homo sapiens, UniProt Q8TDD5); test: Dose response cell-based high-throughput screening assay for agonists of the transient receptor potential channel ML3 (TRPML3). [Related pubchem assays: 1526, 1424, 1448 ]; format: functional
Mucolipin-3, sequence (Q8TDD5 whole entry): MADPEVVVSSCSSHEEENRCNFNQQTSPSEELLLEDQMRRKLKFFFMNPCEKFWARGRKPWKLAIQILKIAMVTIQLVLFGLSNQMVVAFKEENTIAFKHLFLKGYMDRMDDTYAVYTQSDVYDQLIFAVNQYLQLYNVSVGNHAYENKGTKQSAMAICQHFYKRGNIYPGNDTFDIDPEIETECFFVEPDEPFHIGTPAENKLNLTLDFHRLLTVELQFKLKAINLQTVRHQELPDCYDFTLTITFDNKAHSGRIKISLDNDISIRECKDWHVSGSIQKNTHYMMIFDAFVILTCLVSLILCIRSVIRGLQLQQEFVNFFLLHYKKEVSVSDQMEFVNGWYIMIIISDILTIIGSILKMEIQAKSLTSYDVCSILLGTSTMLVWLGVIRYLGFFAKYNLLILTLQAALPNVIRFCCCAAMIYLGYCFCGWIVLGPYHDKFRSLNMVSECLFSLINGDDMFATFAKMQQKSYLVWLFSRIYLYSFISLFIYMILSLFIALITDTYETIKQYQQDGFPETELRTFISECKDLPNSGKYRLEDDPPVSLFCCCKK

[11] = M. tuberculosis growth inhibition, HTS (AID 449762); format: functional
[12] = molecular target: T3, Streptokinase A (Streptococcus pyogenes serotype M1, UniProt P10520); test: Absorbance Microorganism-Based Dose Response Follow up to Identify Inhibitors of Streptokinase Expression. [Related pubchem assays: 1677 (Project Summary), 1915, 1914, 1902 (Retest at Dose), 1900 (Counter Screen), 1662 (Primary HTS)]; format: functional, Streptococcus pyogenes M1 GAS
T3 sequence (P10520 whole entry): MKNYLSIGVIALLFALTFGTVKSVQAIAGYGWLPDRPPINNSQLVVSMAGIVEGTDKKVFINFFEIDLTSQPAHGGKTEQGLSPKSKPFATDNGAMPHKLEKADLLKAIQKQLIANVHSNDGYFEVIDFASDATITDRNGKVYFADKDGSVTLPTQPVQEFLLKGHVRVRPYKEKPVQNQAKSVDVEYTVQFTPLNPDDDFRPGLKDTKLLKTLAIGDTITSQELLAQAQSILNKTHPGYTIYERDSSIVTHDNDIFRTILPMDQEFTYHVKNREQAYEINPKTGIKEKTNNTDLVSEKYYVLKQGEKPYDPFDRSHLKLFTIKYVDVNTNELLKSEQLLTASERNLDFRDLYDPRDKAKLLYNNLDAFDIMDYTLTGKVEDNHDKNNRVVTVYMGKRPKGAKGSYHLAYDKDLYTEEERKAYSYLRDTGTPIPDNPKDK

[13] = tested on: Streptococcus; test: Streptococcus pyogenes growth inhibition counter-screen, dose response, counter-screen for streptokinase expression inhibitor project, luminescence, BacTiter-Glo, strain UMAA2166 (AID 2477); format: functional, organism-based
[14] = molecular target: T4, E3 ubiquitin-protein ligase XIAP (Homo sapiens, UniProt P98170); test: Counter Screen using XIAP-Bir3 for Chemical Antagonists of Bir1/2 domains of IAP-family anti-apoptotic proteins. [Related pubchem assays (depositor defined):AID1018, AID1449, AID1514, AID1638, AID1749, AID1750, AID488957, AID488963]
T4 sequence (P98170 whole entry): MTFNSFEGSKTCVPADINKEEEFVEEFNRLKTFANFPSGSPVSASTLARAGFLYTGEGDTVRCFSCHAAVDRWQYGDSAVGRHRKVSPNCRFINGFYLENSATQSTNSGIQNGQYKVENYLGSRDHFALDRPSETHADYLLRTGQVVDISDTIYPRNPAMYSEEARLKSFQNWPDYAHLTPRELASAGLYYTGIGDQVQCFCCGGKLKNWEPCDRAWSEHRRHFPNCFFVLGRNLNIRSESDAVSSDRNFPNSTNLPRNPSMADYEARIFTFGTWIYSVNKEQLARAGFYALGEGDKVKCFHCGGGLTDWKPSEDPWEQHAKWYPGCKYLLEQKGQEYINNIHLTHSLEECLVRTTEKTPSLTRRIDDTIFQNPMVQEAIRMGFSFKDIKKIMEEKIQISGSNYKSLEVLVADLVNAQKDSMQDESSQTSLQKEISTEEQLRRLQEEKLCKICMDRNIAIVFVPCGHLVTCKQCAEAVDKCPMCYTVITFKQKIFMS

[15] = molecular target: T4, E3 ubiquitin-protein ligase XIAP; test: XIAP antagonists, biochemical, IAP family, fluorescence polarization (AID 1018); format: functional

5-hydroxytryptamine receptor 1E, sequence (P28566 whole entry): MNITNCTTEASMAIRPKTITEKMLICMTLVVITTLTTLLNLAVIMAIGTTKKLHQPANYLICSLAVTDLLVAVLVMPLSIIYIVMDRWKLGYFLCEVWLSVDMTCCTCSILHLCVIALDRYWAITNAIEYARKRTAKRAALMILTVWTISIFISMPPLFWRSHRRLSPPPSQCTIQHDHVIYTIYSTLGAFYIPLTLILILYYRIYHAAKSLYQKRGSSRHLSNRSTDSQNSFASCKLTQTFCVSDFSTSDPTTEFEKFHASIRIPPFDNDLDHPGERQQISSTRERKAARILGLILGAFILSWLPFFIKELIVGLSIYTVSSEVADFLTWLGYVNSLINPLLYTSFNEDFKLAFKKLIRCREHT

O=C(OC(C(=O)Nc1cccc(C(F)(F)F)c1)c1ccccc1)C1CCCCC1 (stereo not given)
IC50 [1]: 11.2 µM (not active)
EC50 [2]: 118 µM (active)
EC50 [3]: 518 µM (active)
IC50 [4]: 7.69 µM (active)

CCN1C(=O)c2cccc3cccc1c23
IC50 [5]: 32 µM (active)
IC50 [6]: 20.5 µM (active)
IC50 [7]: 33.9 µM (active)
IC50 [8]: > 50 µM (inactive)

Cc1ccccc1S(=O)(=O)c1c(C)cc(C)n(C(C)C)c1=O
EC50 [9]: > 29.9 µM (not active)
EC50 [10]: 2.44 µM (active)

O=C(N/N=C/c1c(F)c(F)c(F)c(F)c1F)c1cccc(S(=O)(=O)N2CCOCC2)c1
IC50 [11]: > 100 µM (active)

CC(C)Oc1nc(-c2ccc(Cl)cc2)nc2ccccc12
EC50 [12]: 6.9 µM (active)
EC50 [13]: 51.2 µM (active)

O=C(CCN1C(=O)C2C3C=CC(C3)C2C1=O)N1CCN(c2ccccc2F)CC1 (stereo not given)
IC50 [14]: > 100 µM (inactive)
IC50 [15]: > 100 µM (not active)
